Test results as given in patent US20050074810A1, “Method for non-invasilvely determining the relative levels of two biological substances” (priority 2001, published 2005).
Where two headings read alike, the source gives them in different places.

Key:
[1] = subdermal lactate 1.74 mM, ammonium 1.56 mM
Method: Experiments were performed in specially-designed iontophoresis diffusion cells (Laboratory Glass Apparatus, Berkeley, Calif., USA) as represented in FIG. 7.
The anodal and cathodal chambers contacted the outer surface of the skin and contained the receptor (collection) media, respectively, 80 mM Tris/TrisHCl and 25 mM Tris+34 mM Mops (both buffered to pH 7.4).
Dermatomed pig-ear skin was clamped between the two halves of the iontophoresis cell and each chamber was filled with the appropriate solution.
The sub-dermal chamber was filled with the “donor solution which was perfused continuously at 2-3 mL/hour by means of a peristaltic pump.
A current of 0.4 mA (0.5 mA/cm^2) was passed for a total of 5 hours between the Ag/AgCl electrodes which were inserted into the anodal and cathodal chambers.
Every hour, the entire anode and cathode solutions were withdrawn and the chambers were refilled with fresh buffer.

[2] = in vivo, 4 mA for 5 minutes, 4.5 cm^2, lithium nitrate electrolyte; cited from earlier work

N [Ammonium, ammonium]
Deduced transport number (×100) ([1]; 3 h): 1.36 ± 0.09 ×100
K for analyte/internal standard couple, internal standard Na^+ ([1]; 3 h): 1.71 ± 0.09
Deduced transport number (×100) ([1]; 5 h): 1.44 ± 0.03 ×100
K for analyte/internal standard couple, internal standard Na^+ ([1]; 5 h): 1.71 ± 0.01

[K+] [K^+, potassium]
Concentration in the cathode chamber after current passage [2]: about 14 μEq/L
